Literature values in patent US9550804B2, “Dosage form to increase prasterone bioavailability” (Health Science Funding, LLC, priority 2011, dated 2017).
≈ marks a conversion by molar mass, not a printed value.

What was measured:
[1] = not given; remark: listed apart in the source

## C[C@]12CC[C@H](O)CC1=CC[C@@H]1[C@@H]2CC[C@]2(C)C(=O)CC[C@@H]12 [Prasterone, (3S,8R,9S,10R,13S,14S)-3-hydroxy-10,13-dimethyl-3,4,7,8,9,10,11,12,13,14,15,16-dodecahydro-1H-cyclopenta[a]phenan-thren-17(2H)-one]
other
  solubility in water: 63.5 µg/mL (≈ 220 µM)
[1]
  log P (octanol-water): 3.23
